Source: patent US5747447A, “Stable polypeptide composition” (COR Therapeutics, priority 1995, dated 1998)
*1 amine or outer side, *2 acyl side, *3 side chain or, on linkers, in order; H or OH if unused. Where a SMILES comes first, the peptide text is derived from it. Bridges are numbered along the chain shown (N, C = ends). Where no end group is shown, it is not given here. [ ]: non-standard residue; d: D form. The star is where a group is joined. X1 = N=C(NCCCC[C@H](N[*:1])C(=O)[*:2])c1ccccc1; X2 = CC(=N)NCCCC[C@H](N[*:1])C(=O)[*:2]; NMeF = CN[C@@H](Cc1ccccc1)C(=O)O; hArg = N=C(N)NCCCC[C@H](N)C(=O)O; dPen = CC(C)(S)[C@@H](N)C(=O)O; Pen = CC(C)(S)[C@H](N)C(=O)O; NMeS = CN[C@@H](CO)C(=O)O; NMeA = CN[C@@H](C)C(=O)O; Aib = CC(C)(N)C(=O)O; βAla = NCCC(=O)O; Mpa = O=C(O)CCS; Sar = CNCC(=O)O; For = O=C*

Molecular target: ADP-induced human platelet aggregation (Homo sapiens, UniProt P05106+P08514)
Assay: standard aggregation inhibition assay (ADP-induced human platelet aggregation)
Assay type: cell-based
Details: ADP-induced human platelet aggregation; read-out: Appr, IC50
Source text: 2. Standard assays directly applied to platelet aggregation, such as those described by Gann, Z.-R., et al., J Biol Chem (1988) 263:19827-19832; Huang, T. F., et al., J Biol Chem (1987) 262:16157-16163; Biochemistry (1989) 28:661-666, cited above and incorporated herein by reference;

Compound	IC50 [µM]
CC(=N)NCCCC[C@@H]1NC(=O)CCSSC(C)(C)[C@@H](C(N)=O)NC(=O)[C@@H]2CCCN2C(=O)[C@H](Cc2c[nH]c3ccccc23)NC(=O)[C@H](CC(=O)O)NC(=O)CNC1=O [Analog #69, Mpr-(Acetimidyl-Lys)-G-D-W-P-Pen-NH2] ([Mpa][X2]GDWP[Pen]-NH2; disulfide 1-7)	0.5
CN1C(=O)[C@H](CC(=O)O)NC(=O)CNC(=O)[C@H](CCCCN)NC(=O)[C@@H](N)CSSC[C@@H](C(N)=O)NC(=O)[C@@H]2CCCN2C(=O)[C@@H]1Cc1ccccc1 [Analog #45, C-K-G-D-(NMePhe)-P-C-NH2] (H-CKGD[NMeF]PC-NH2; disulfide 1-7)	> 200
CN1CC(=O)N[C@@H](CC(=O)O)C(=O)N[C@@H](Cc2c[nH]c3ccccc23)C(=O)N2CCC[C@H]2C(=O)N[C@H](C(N)=O)CSSC[C@H](N)C(=O)N[C@@H](CCCCN)C1=O [Analog #43, C-K-(Sar)-D-W-P-C-NH2] (H-CK[Sar]DWPC-NH2; disulfide 1-7)	50
CKGDWGC-NH2 (cysteine pairing not given here) [Analog #34]	100
C[C@H]1NC(=O)[C@H](CCCCN)NC(=O)[C@@H](N)CSSC[C@@H](C(N)=O)NC(=O)[C@@H]2CCCN2C(=O)[C@H](Cc2c[nH]c3ccccc23)NC(=O)[C@H](CC(=O)O)NC1=O [Analog #38, C-K-A.dagger.-D-W-P-C-NH2] (H-CK[dA]DWPC-NH2; disulfide 1-7)	> 200
CC(=O)N[C@H]1CSSC(C)(C)[C@@H](C(N)=O)NC(=O)[C@H](CC(=O)O)NC(=O)CNC(=O)[C@H](CCCNC(=N)N)NC1=O [Analog #11, Acetyl-C-R-G-D-Pen-NH2] (Ac-CRGD[Pen]-NH2; disulfide 1-5)	5
CN1CC(=O)N[C@H](C(N)=O)CSSC[C@H](N)C(=O)N[C@@H](CCCCN)C(=O)NCC(=O)N[C@@H](CC(=O)O)C(=O)N[C@@H](Cc2c[nH]c3ccccc23)C1=O [Analog #39, C-K-G-D-W-(Sar)-C-NH2] (H-CKGDW[Sar]C-NH2; disulfide 1-7)	5
NC(=O)[C@@H]1CSSC[C@H](N)C(=O)N[C@@H](CCCCNC=O)C(=O)NCC(=O)N[C@@H](CC(=O)O)C(=O)N[C@@H](Cc2c[nH]c3ccccc23)C(=O)N2CCC[C@H]2C(=O)N1 [Analog #40, C-K(Formyl)-G-D-W-P-C-NH2] (H-CK(For)GDWPC-NH2; disulfide 1-7)	> 200
CKGDYPC-NH2 (cysteine pairing not given here) [Analog #12]	12
NCCCC[C@@H]1NC(=O)CCSSC[C@H](C(N)=O)NC(=O)[C@@H]2CCCN2C(=O)[C@H](Cc2c[nH]c3ccccc23)NC(=O)[C@H](CC(=O)O)NC(=O)CNC1=O [Analog #61, Mpr-K-G-D-W-P-C.dagger.-NH2] ([Mpa]KGDWP[dC]-NH2; disulfide 1-7)	15
CC1(C)SSCCC(=O)N[C@@H](CCCCN)C(=O)NCC(=O)N[C@@H](CC(=O)O)C(=O)N[C@@H](Cc2c[nH]c3ccccc23)C(=O)N2CCC[C@H]2C(=O)N[C@@H]1C(N)=O [Analog #51, Mpr-K-G-D-W-P-Pen-NH2] ([Mpa]KGDWP[Pen]-NH2; disulfide 1-7)	0.75
CC1(C)SSCCC(=O)N[C@@H](CCCCN)C(=O)NCC(=O)N[C@@H](CC(=O)O)C(=O)N[C@@H]1C(N)=O [Analog #9, Mpr-K-G-D-Pen-NH2] ([Mpa]KGD[Pen]-NH2; disulfide 1-5)	25
CN1CC(=O)N[C@@H](CC(=O)O)C(=O)N[C@@H](Cc2c[nH]c3ccccc23)C(=O)N2CCC[C@H]2C(=O)N[C@H](C(N)=O)C(C)(C)SSCCC(=O)N[C@@H](CCCCNC(=N)N)C1=O [Analog #71, Mpr-Har-Sar-D-W-P-Pen-NH2] ([Mpa][hArg][Sar]DWP[Pen]-NH2; disulfide 1-7)	2.5
Ac-CKGDWPC-NH2 (cysteine pairing not given here) [Analog #47]	2.5
N=C(NCCCC[C@@H]1NC(=O)CCSSC[C@@H](C(N)=O)NC(=O)[C@@H]2CCCN2C(=O)[C@H](Cc2c[nH]c3ccccc23)NC(=O)[C@H](CC(=O)O)NC(=O)CNC1=O)c1ccccc1 [Analog #70, Mpr-(Phenylimidyl-Lys)-G-D-W-P-C-NH2] ([Mpa][X1]GDWPC-NH2; disulfide 1-7)	0.5
CKGEWPC-NH2 (cysteine pairing not given here) [Analog #35]	> 300
CC1(C)SSCCC(=O)N[C@H](CCCCN)C(=O)NCC(=O)N[C@@H](CC(=O)O)C(=O)N[C@@H](Cc2c[nH]c3ccccc23)C(=O)N2CCC[C@H]2C(=O)N[C@@H]1C(N)=O [Analog #62, Mpr-K.dagger.-G-D-W-P-Pen-NH2] ([Mpa][dK]GDWP[Pen]-NH2; disulfide 1-7)	2.5
CC1(C)SSCCC(=O)N[C@@H](CCCCNC(=N)c2ccccc2)C(=O)NCC(=O)N[C@@H](CC(=O)O)C(=O)N[C@@H](Cc2c[nH]c3ccccc23)C(=O)N2CCC[C@H]2C(=O)N[C@@H]1C(N)=O [Analog #72, Mpr-(Phenylimidyl-Lys)-G-D-W-P-Pen-NH2] ([Mpa][X1]GDWP[Pen]-NH2; disulfide 1-7)	0.5
CKGDWPC-NH2 (cysteine pairing not given here) [Analog #10]	5
CC1(C)SSCCC(=O)N[C@@H](CCCCN)C(=O)NCC(=O)N[C@@H](CC(=O)O)C(=O)N[C@@H](Cc2c[nH]c3ccccc23)C(=O)N2CCC[C@H]2C(=O)N[C@H]1C(N)=O [Analog #52, Mpr-K-G-D-W-P-Pen.dagger.-NH2] ([Mpa]KGDWP[dPen]-NH2; disulfide 1-7)	5

Same assay, conditions: PAI activity, Example 15; read-out: Appr.IC20

Compound	IC20 [µM]
CC1(C)SSCCC(=O)N[C@@H](CC(=O)O)C(=O)N[C@@H](CCCCNC(=N)N)C(=O)NCC(=O)N[C@@H](CC(=O)O)C(=O)N[C@@H](Cc2c[nH]c3ccccc23)C(=O)N2CCC[C@H]2C(=O)N[C@@H]1C(N)=O [PAI 102, Mpr-D-(Har)-G-D-W-P-Pen-NH2] ([Mpa]D[hArg]GDWP[Pen]-NH2; disulfide 1-8)	4.04
C[C@@H]1NC(=O)CCSSC(C)(C)[C@@H](C(N)=O)NC(=O)[C@@H]2CCCN2C(=O)[C@H](Cc2c[nH]c3ccccc23)NC(=O)[C@H](CC(=O)O)NC(=O)CNC(=O)[C@H](CCCCN)NC1=O [PAI 101, Mpr-A-K-G-D-W-P-Pen-NH2] ([Mpa]AKGDWP[Pen]-NH2; disulfide 1-8)	4.91
CN1CC(=O)N[C@H](C(N)=O)CSSCCC(=O)N[C@@H](CCCCNC(=N)N)C(=O)NCC(=O)N[C@@H](CC(=O)O)C(=O)N[C@@H](Cc2c[nH]c3ccccc23)C(=O)N2CCC[C@H]2C1=O [PAI 98, Mpr-Har-G-D-W-P-(Sar)-C-NH2] ([Mpa][hArg]GDWP[Sar]C-NH2; disulfide 1-8)	0.31
N=C(N)NCCCC[C@@H]1NC(=O)CCNC(=O)CCSSC[C@@H](C(N)=O)NC(=O)[C@@H]2CCCN2C(=O)[C@H](Cc2c[nH]c3ccccc23)NC(=O)[C@H](CC(=O)O)NC(=O)CNC1=O [PAI 87, Mpr-(β-Ala)-Har-G-D-W-P-C-NH2] ([Mpa][βAla][hArg]GDWPC-NH2; disulfide 1-8)	0.92
CC1(C)NC(=O)CCSSC[C@@H](C(N)=O)NC(=O)[C@@H]2CCCN2C(=O)[C@H](Cc2c[nH]c3ccccc23)NC(=O)[C@H](CC(=O)O)NC(=O)CNC(=O)[C@H](CCCCNC(=N)N)NC1=O [PAI 83, Mpr-Aib-Har-G-D-W-P-C-NH2] ([Mpa][Aib][hArg]GDWPC-NH2; disulfide 1-8)	2.2
N=C(N)NCCCC[C@@H]1NC(=O)CNC(=O)CCSSC[C@@H](C(N)=O)NC(=O)[C@@H]2CCCN2C(=O)[C@H](Cc2c[nH]c3ccccc23)NC(=O)[C@H](CC(=O)O)NC(=O)CNC1=O [PAI 81, Mpr-G-Har-G-D-W-P-C-NH2] ([Mpa]G[hArg]GDWPC-NH2; disulfide 1-8)	7.47
Mpr-(N-Me-Ser)-Har-G-D-W-P-C-NH2 ([Mpa][NMeS][hArg]GDWPC-NH2; cysteine pairing not given here) [PAI 85]	0.28
CN1CC(=O)N[C@@H](CCCCNC(=N)N)C(=O)NCC(=O)N[C@@H](CC(=O)O)C(=O)N[C@@H](Cc2c[nH]c3ccccc23)C(=O)N2CCC[C@H]2C(=O)N[C@H](C(N)=O)CSSCCC1=O [PAI 90, Mpr-Sar-Har-G-D-W-P-C-NH2] ([Mpa][Sar][hArg]GDWPC-NH2; disulfide 1-8)	0.27
Mpr-Har-G-D-W-P-(Aib)-NH2 ([Mpa][hArg]GDWP[Aib]-NH2; SMILES CC(C)(NC(=O)[C@@H]1CCCN1C(=O)[C@H](Cc1c[nH]c2ccccc12)NC(=O)[C@H](CC(=O)O)NC(=O)CNC(=O)[C@H](CCCCNC(=N)N)NC(=O)CCS)C(N)=O) [PAI 99]	0.46
N=C(N)NCCCC[C@@H]1NC(=O)CCSSC[C@@H](C(N)=O)NC(=O)CNC(=O)[C@@H]2CCCN2C(=O)[C@H](Cc2c[nH]c3ccccc23)NC(=O)[C@H](CC(=O)O)NC(=O)CNC1=O [PAI 95, Mpr-Har-G-D-W-P-G-C-NH2] ([Mpa][hArg]GDWPGC-NH2; disulfide 1-8)	8.66
C[C@H]1NC(=O)CCSSC[C@@H](C(N)=O)NC(=O)[C@@H]2CCCN2C(=O)[C@H](Cc2c[nH]c3ccccc23)NC(=O)[C@H](CC(=O)O)NC(=O)CNC(=O)[C@H](CCCCNC(=N)N)NC1=O [PAI 86, Mpr-A.dagger.-Har-G-D-W-P-C-NH2] ([Mpa][dA][hArg]GDWPC-NH2; disulfide 1-8)	1.15
C[C@H]1C(=O)N[C@H](C(N)=O)CSSCCC(=O)N[C@@H](CCCCNC(=N)N)C(=O)NCC(=O)N[C@@H](CC(=O)O)C(=O)N[C@@H](Cc2c[nH]c3ccccc23)C(=O)N2CCC[C@H]2C(=O)N1C [PAI 94, Mpr-Har-G-D-W-P-(N-Me-Ala)-C-NH2] ([Mpa][hArg]GDWP[NMeA]C-NH2; disulfide 1-8)	1.46
